Read-outs that look alike come from different tables or passages of the source.
Key:
[1] = cited from earlier work
C. albicans = test: Checkerboard minimum inhibitory concentration and synergy test (microtiter plate and agar plate analysis) on Candida albicans; format: cell-based; settings: for Fold MIC decrease: added compound with other compound at 1/2 MIC vs alone; for 1/2 MIC: half of MIC, concentration used in the combination; for MIC: Candida albicans, 24 h
C. neoformans = test: Checkerboard minimum inhibitory concentration and synergy test (microtiter plate and agar plate analysis) on C. neoformans; format: cell-based, Cryptococcus neoformans; settings: for Fold MIC decrease: added compound with other compound at 1/2 MIC vs alone; for 1/2 MIC: half of MIC, concentration used in the combination; for MIC: Cryptococcus neoformans; for MIC / synergistic effect of DDG isomers on antifungal effect of amphotericin B: 24 h; for synergistic effect of DDG isomers on antifungal effect of amphotericin B: 37° C. (FIG. 11)
neurons = settings: cited from earlier work
phagocytes = settings: cited from earlier work
laboratory animals = settings: fed in very high doses; cited from earlier work
mice = settings: cited from earlier work
human cells = settings: cited from earlier work
[2] = intravenous, 1 mg/kg, cited from earlier work
[3] = system: bacteria, rickettsiae, and viruses; settings: cited from earlier work
erythrocytes = settings: by binding to cholesterol in the cell membrane, causing anemia; cited from earlier work
[4] = 25° C., agar plate, compound alone, read-out: MIC
[5] = 25° C., microtiter plate, compound alone, read-out: MIC
[6] = 37° C., agar plate, compound alone, read-out: MIC
[7] = 37° C., microtiter plate, compound alone, read-out: MIC
[8] = 25° C., agar plate, compound alone
[9] = 25° C., microtiter plate, compound alone
[10] = 37° C., agar plate, compound alone
[11] = 37° C., microtiter plate, compound alone

CCCCCCCCCCCCOCC(O)CO (racemic) [rac-1-DDG, rac-1-O-dodecylglycerol]
solubility in water [1]: relatively good solubility in water
Fold MIC decrease (C. albicans; 25° C., agar plate): 80
1/2 MIC (C. albicans; 25° C., agar plate): 10 µg/mL
Fold MIC decrease (C. albicans; 25° C., microtiter plate): 36
1/2 MIC (C. albicans; 25° C., microtiter plate): 5 µg/mL
Fold MIC decrease (C. albicans; 37° C., agar plate): 40
1/2 MIC (C. albicans; 37° C., agar plate): 7.5 µg/mL
Fold MIC decrease (C. albicans; 37° C., microtiter plate): 40
1/2 MIC (C. albicans; 37° C., microtiter plate): 7.5 µg/mL
MIC (C. albicans; [4]): 20 µg/mL
MIC (C. albicans; [5]): 10 µg/mL
MIC (C. albicans; 25° C., agar plate, in presence of the other compound at 1/2 MIC (rac-1-DDG 10 or Amph. B 1.13 μg/ml), read-out: Resulting MIC of added compound): 0.25 µg/mL
MIC (C. albicans; 25° C., microtiter plate, in presence of the other compound at 1/2 MIC (rac-1-DDG 5 or Amph. B 1 μg/ml), read-out: Resulting MIC of added compound): 0.281 µg/mL
MIC (C. albicans; [6]): 15 µg/mL
MIC (C. albicans; [7]): 15 µg/mL
MIC (C. albicans; 37° C., agar plate, in presence of the other compound at 1/2 MIC (rac-1-DDG 7.5 or Amph. B 1 μg/ml), read-out: Resulting MIC of added compound): 0.375 µg/mL
MIC (C. albicans; 37° C., microtiter plate, in presence of the other compound at 1/2 MIC (rac-1-DDG 7.5 or Amph. B 0.5 μg/ml), read-out: Resulting MIC of added compound): 0.375 µg/mL
Fold MIC decrease (C. neoformans; 25° C., agar plate): 80
1/2 MIC (C. neoformans; 25° C., agar plate): 5 µg/mL
Fold MIC decrease (C. neoformans; 25° C., microtiter plate): 120
1/2 MIC (C. neoformans; 25° C., microtiter plate): 7.5 µg/mL
Fold MIC decrease (C. neoformans; 37° C., agar plate): 160
1/2 MIC (C. neoformans; 37° C., agar plate): 10 µg/mL
Fold MIC decrease (C. neoformans; 37° C., microtiter plate): 50
1/2 MIC (C. neoformans; 37° C., microtiter plate): 7.5 µg/mL
MIC (C. neoformans; [4]): 10 µg/mL
MIC (C. neoformans; [5]): 15 µg/mL
MIC (C. neoformans; 25° C., microtiter plate, in presence of the other compound at 1/2 MIC (rac-1-DDG 7.5 or Amph. B 1.13 μg/ml), read-out: Resulting MIC of added compound): 0.125 µg/mL
MIC (C. neoformans; 25° C., agar plate, in presence of the other compound at 1/2 MIC (rac-1-DDG 5 or Amph. B 1.13 μg/ml), read-out: Resulting MIC of added compound): 0.125 µg/mL
MIC (C. neoformans; [6]): 20 µg/mL
MIC (C. neoformans; [7]): 15 µg/mL
MIC (C. neoformans; 37° C., agar plate, in presence of the other compound at 1/2 MIC (rac-1-DDG 10 or Amph. B 1.25 μg/ml), read-out: Resulting MIC of added compound): 0.125 µg/mL
MIC (C. neoformans; 37° C., microtiter plate, in presence of the other compound at 1/2 MIC (rac-1-DDG 7.5 or Amph. B 0.75 μg/ml), read-out: Resulting MIC of added compound): 0.3 µg/mL
neuronal growth (neurons): promote neuronal growth
stimulation of phagocytes to ingest foreign substances (phagocytes): stimulated
toxicity (laboratory animals): does not appear to be toxic
organ weights or body weights (mice; 1 g/kg/day in feed, 4 weeks): did not significantly alter the organ weights or body weights of mice
linoleolyl moieties of total lipids (mice; during feeding, 1 g/kg/day): concomitant decrease
saturated acyl moieties of total lipids (mice; during feeding, 1 g/kg/day): marked increase
lipids of organs and tissues (mice; four weeks after removal of compound from diet): close resemblance to those of a control group

CCCCCCCCCCCCOC(CO)CO [2-DDG, 2-O-dodecylglycerol]
synergistic effect of DDG isomers on antifungal effect of amphotericin B (C. neoformans): synergistic effect

Nc1nc(=O)[nH]cc1F [Fluorocytosine]
toxicity to human cells (human cells): toxic to human cells

CCCCCCCCCCCCOC[C@H](O)CO [Sn-3-DDG, sn-3-O-dodecylglycerol]
synergistic effect of DDG isomers on antifungal effect of amphotericin B (C. neoformans): synergistic effect

C[C@@H]1[C@H](O)[C@@H](C)/C=C/C=C/C=C/C=C/C=C/C=C/C=C/[C@H](O[C@@H]2O[C@H](C)[C@@H](O)[C@H](N)[C@@H]2O)C[C@@H]2O[C@](O)(C[C@@H](O)C[C@@H](O)[C@H](O)CC[C@@H](O)C[C@@H](O)CC(=O)O[C@H]1C)C[C@H](O)[C@H]2C(=O)O [amphotericin B, [1R-(1R*,3S*, 5R*,6R*,9R*, 11R*,15S*,16R*,17R*,18S*,19E,21E,23E,25E,27E,29E,31E,33R*, 35S*,36R*,37S,)]-33-[(3-amino-3,6-dideoxy-β-D-mannopyranosyl)oxy]1,3,5,6,9,11,17,37-octahydroxy-15,16,18-trimethyl-13-oxo-14,39-dioxabicyclo-[33.3.1]nonatriaconta-19,21,23,25,27,29,31-heptaene-36-carboxylic acid]
solubility in water ([1]; crystalline): insoluble in water
peak serum concentrations ([2]; by end of infusion): 2-3 micrograms/ml
serum concentration ([2]; for up to 24 hours after infusion): above 0.5 micrograms/ml
Fold MIC decrease (C. albicans; 25° C., agar plate): 72
1/2 MIC (C. albicans; 25° C., agar plate): 1.13 µg/mL
Fold MIC decrease (C. albicans; 25° C., microtiter plate): 64
1/2 MIC (C. albicans; 25° C., microtiter plate): 1 µg/mL
Fold MIC decrease (C. albicans; 37° C., agar plate): 10.6
1/2 MIC (C. albicans; 37° C., agar plate): 1 µg/mL
Fold MIC decrease (C. albicans; 37° C., microtiter plate): 5.3
1/2 MIC (C. albicans; 37° C., microtiter plate): 0.5 µg/mL
MIC (C. albicans; [8]): 2.25 µg/mL
MIC (C. albicans; [9]): 2 µg/mL
MIC (C. albicans; [10]): 2 µg/mL
MIC (C. albicans; [11]): 1 µg/mL
MIC (C. albicans; read-out: Resulting MIC of added compound, 25° C., agar plate, in presence of the other compound at 1/2 MIC (rac-1-DDG 10 or Amph. B 1.13 μg/ml)): 0.0313 µg/mL
MIC (C. albicans; read-out: Resulting MIC of added compound, 25° C., microtiter plate, in presence of the other compound at 1/2 MIC (rac-1-DDG 5 or Amph. B 1 μg/ml)): 0.0313 µg/mL
MIC (C. albicans; read-out: Resulting MIC of added compound, 37° C., agar plate, in presence of the other compound at 1/2 MIC (rac-1-DDG 7.5 or Amph. B 1 μg/ml)): 0.188 µg/mL
MIC (C. albicans; read-out: Resulting MIC of added compound, 37° C., microtiter plate, in presence of the other compound at 1/2 MIC (rac-1-DDG 7.5 or Amph. B 0.5 μg/ml)): 0.188 µg/mL
effect on bacteria, rickettsiae, and viruses [3]: no effect
Fold MIC decrease (C. neoformans; 25° C., agar plate): 72
1/2 MIC (C. neoformans; 25° C., agar plate): 1.13 µg/mL
Fold MIC decrease (C. neoformans; 25° C., microtiter plate): 48
1/2 MIC (C. neoformans; 25° C., microtiter plate): 1.12 µg/mL
1/2 MIC (C. neoformans; 25° C., microtiter plate, listed as Amph. B): 1.13 µg/mL
Fold MIC decrease (C. neoformans; 37° C., agar plate): 80
1/2 MIC (C. neoformans; 37° C., agar plate): 1.25 µg/mL
Fold MIC decrease (C. neoformans; 37° C., microtiter plate): 12.7
1/2 MIC (C. neoformans; 37° C., microtiter plate): 0.75 µg/mL
MIC (C. neoformans; [8]): 2.25 µg/mL
MIC (C. neoformans; [9]): 2.25 µg/mL
MIC (C. neoformans; [10]): 2.5 µg/mL
MIC (C. neoformans; [11]): 1.5 µg/mL
MIC (C. neoformans; read-out: Resulting MIC of added compound, 25° C., 24 h, microtiter plate, in presence of the other compound at 1/2 MIC (rac-1-DDG 7.5 or Amph. B 1.13 μg/ml)): 0.047 µg/mL
MIC (C. neoformans; read-out: Resulting MIC of added compound, 25° C., agar plate, in presence of the other compound at 1/2 MIC (rac-1-DDG 5 or Amph. B 1.13 μg/ml)): 0.0313 µg/mL
MIC (C. neoformans; read-out: Resulting MIC of added compound, 37° C., agar plate, in presence of the other compound at 1/2 MIC (rac-1-DDG 10 or Amph. B 1.25 μg/ml)): 0.0313 µg/mL
MIC (C. neoformans; read-out: Resulting MIC of added compound, 37° C., microtiter plate, in presence of the other compound at 1/2 MIC (rac-1-DDG 7.5 or Amph. B 0.75 μg/ml)): 0.118 µg/mL
damage to erythrocytes (erythrocytes): damages erythrocytes

CCCCCCCCCCCCOC[C@@H](O)CO [sn-1-DDG, sn-1-O-dodecylglycerol]
synergistic effect of DDG isomers on antifungal effect of amphotericin B (C. neoformans): synergistic effect

Reference: US5444052A, “Amphotericin B composition with enhanced fungal activity” (Temple University of the Commonwealth System of Higher …, priority 1993, dated 1995)
